The text below walks through data of patent US9657006B2, “Macrocyclic factor VIIa inhibitors” (BRISTOL-MYERS SQUIBB COMPANY, priority 2013, dated 2017).

The conditions of series [1]: amide bond, 15-membered ring, HATU/NMM, DMF, 25.0 °C, 12.0 h.
For series [2], the target named is T1, FVIIa (Homo sapiens, UniProt P08709).
T1 construct: with about 1% of the total amount in the proteolytically active form factor VIIa
Briefly: FVIIa-Xase Ki (37° C.). The format is biochemical. On the procedure:
The effectiveness of compounds of the present invention as inhibitors of the coagulation Factors, VIIa, IXa, Xa, XIa, XIIa, plasma kallikrein or thrombin, tissue kallikrein and activated protein C, can be determined using a relevant purified serine protease, respectively, and an appropriate synthetic substrate. The rate of hydrolysis of the chromogenic or fluorogenic substrate by the relevant serine protease was measured both in the absence and presence of compounds of the present invention. […] A decrease in the rate of absorbance or fluorescence change in the presence of inhibitor is indicative of enzyme inhibition. Such methods are known to one skilled in the art. The results of this assay are expressed as the inhibitory constant, Ki.
Reactions were initiated by the addition of human FX (range of concentrations). […] The residual FVIIa is sufficient, when combined with PCPS, calcium and TF to catalyze the conversion of FX to Xa, and was increased by the addition of 5 pM human FVIIa. FXa in turn hydrolyses S2765, which was monitored for 60 min at 405 nm. FXase activity was derived from the parabolic change in absorbance over time according to Equation 2: Absorbance=½ at 2+bt+c (Eq. 2) where a is proportional to the rate of FX activation≡product≡vs; b is proportional to the hydrolysis of S2765 in the absence of FXa; c is the absorbance at t=0. […]

For series [3] the following is noted: from CNCc1cc(NC(=O)COCc2cccc(C(Nc3ccc4c(N(C(=O)OC(C)(C)C)C(=O)OC(C)(C)C)ncc(F)c4c3)C(=O)O)c2)ccc1S(=O)(=O)C1CC1; amide bond; 15-membered ring; BOP/DMAP/DIPEA; DCM/DMF; 20.7 mM; 25.0 °C; 13.0 h; 2 steps.
For series [4] the following is noted: amide bond.

Structures can show the parent of a compound that is named as a salt. Where two headings read alike, the source gives them in different places.

T1 sequence (P08709 213-466 limits assumed): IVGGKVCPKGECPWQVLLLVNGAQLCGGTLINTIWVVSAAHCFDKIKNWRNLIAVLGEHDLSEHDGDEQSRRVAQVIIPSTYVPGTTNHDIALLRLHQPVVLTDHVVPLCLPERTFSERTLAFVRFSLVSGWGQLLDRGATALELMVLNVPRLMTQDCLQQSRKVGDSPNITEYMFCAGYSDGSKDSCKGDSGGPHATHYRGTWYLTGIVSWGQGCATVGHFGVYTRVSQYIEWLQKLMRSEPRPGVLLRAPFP
T1 sequence (P08709 61-212 limits assumed): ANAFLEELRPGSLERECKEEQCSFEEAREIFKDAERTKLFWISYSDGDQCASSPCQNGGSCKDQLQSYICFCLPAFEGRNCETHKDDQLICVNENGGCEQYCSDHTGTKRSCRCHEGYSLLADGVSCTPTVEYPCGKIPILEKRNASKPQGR
T1 sequence (P13726 33-295 partner): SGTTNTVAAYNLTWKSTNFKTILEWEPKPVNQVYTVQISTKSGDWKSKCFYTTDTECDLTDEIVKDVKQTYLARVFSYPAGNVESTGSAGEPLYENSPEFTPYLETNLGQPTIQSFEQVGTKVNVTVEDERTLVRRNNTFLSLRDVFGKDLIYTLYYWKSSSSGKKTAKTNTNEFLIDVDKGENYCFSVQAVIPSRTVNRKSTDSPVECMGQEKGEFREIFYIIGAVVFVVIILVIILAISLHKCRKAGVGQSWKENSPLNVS

`COc1ccc2cc1[C@H](C)CN(C)C(=O)Nc1ccc(S(=O)(=O)C3CC3)c(c1)CN(C)C(=O)C2Nc1ccc2c(N(C(=O)OC(C)(C)C)C(=O)OC(C)(C)C)nccc2c1` (stereo partly shown) registered a ring closure, yield after HPLC in series [1] (from CNCc1cc(NC(=O)N(C)C[C@@H](C)c2cc(C(Nc3ccc4c(N(C(=O)OC(C)(C)C)C(=O)OC(C)(C)C)nccc4c3)C(=O)O)ccc2OC)ccc1S(=O)(=O)C1CC1, 1.11 mM) of 11%.
As a reminder, the Ki is the dissociation constant of the complex between target and ligand, obtained from inhibition or displacement. Low readings indicate a stronger hold on the target, high ones a looser hold on the target. For `CN1Cc2cc(ccc2S(=O)(=O)C2CC2)NC(=O)CCc2cc(ccc2O)[C@@H](Nc2ccc3c(N)ncc(F)c3c2)C1=O` (single isomer, unassigned) [Example 16], the Ki in series [2] was determined as 92 nM.
In series [1] (from CNCc1cc(NC(=O)N(C)CCc2cccc(C(Nc3ccc4c(N(C(=O)OC(C)(C)C)C(=O)OC(C)(C)C)nccc4c3)C(=O)O)c2)ccc1S(=O)(=O)C1CC1), `CN1CCc2cccc(c2)C(Nc2ccc3c(N(C(=O)OC(C)(C)C)C(=O)OC(C)(C)C)nccc3c2)C(=O)N(C)Cc2cc(ccc2S(=O)(=O)C2CC2)NC1=O` (stereo not shown) had a ring closure, yield after HPLC of 61%.
`CN1CCc2cccc(c2)C(Nc2ccc3c(N)nccc3c2)C(=O)N(C)Cc2cc(ccc2S(=O)(=O)C2CC2)NC1=O` (stereo not shown) [Example 13, trifluoroacetic acid salt]: in series [2], affinity was put at a Ki of 6 nM.
In series [3], `CN1Cc2cc(ccc2S(=O)(=O)C2CC2)NC(=O)COCc2cccc(c2)C(Nc2ccc3c(N(C(=O)OC(C)(C)C)C(=O)OC(C)(C)C)ncc(F)c3c2)C1=O` (stereo not shown) showed a ring closure, crude yield of 48%.
Take `COc1ccc2cc1COCC(=O)Nc1ccc(S(=O)(=O)C3CC3)c(c1)CN(C)C(=O)C2Nc1ccc2c(N(C(=O)OC(C)(C)C)C(=O)OC(C)(C)C)nccc2c1` (stereo not shown): in series [4] (from CNCc1cc(NC(=O)COCc2cc(C(Nc3ccc4c(N(C(=O)OC(C)(C)C)C(=O)OC(C)(C)C)nccc4c3)C(=O)O)ccc2OC)ccc1S(=O)(=O)C1CC1, 15-membered ring, BOP/DMAP/DIPEA, DCM/DMF, 25.0 °C, 12.0 h), the ring closure, isolated yield was determined as 54%.
`CCOC(=O)CC1NC(=O)[C@H](Nc2ccc(C#N)cc2)c2ccc(OCC(F)F)c(c2)CCC(=O)Nc2cccc1c2` (stereo partly shown) gave a ring closure, isolated yield in series [4] (14-membered ring, HATU) of 21%.
